The target of experiment [1] is T1, human A3AR (Homo sapiens, UniProt P0DMS8).
T1 sequence (P0DMS8 1-318): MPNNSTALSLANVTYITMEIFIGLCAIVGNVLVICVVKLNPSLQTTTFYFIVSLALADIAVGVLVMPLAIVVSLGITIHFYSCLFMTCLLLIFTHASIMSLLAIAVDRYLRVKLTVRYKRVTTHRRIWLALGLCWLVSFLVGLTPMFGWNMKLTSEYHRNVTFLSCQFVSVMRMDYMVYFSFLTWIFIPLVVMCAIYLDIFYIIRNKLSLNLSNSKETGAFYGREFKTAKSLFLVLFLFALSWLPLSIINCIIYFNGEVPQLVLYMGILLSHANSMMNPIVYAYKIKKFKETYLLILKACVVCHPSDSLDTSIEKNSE
Kind of experiment: [3H]PSB-11 radioligand equilibrium displacement in Nluc-A3AR HEK293 membranes. Type of experiment: binding. Also on record: expressed in transfected cells. The note with it: read-out: Equilibrium competition pKi (converted). Here is the method: Prior to all experiments, membranes from HEK293 membranes expressing human Nluc-A3AR were diluted to 20 μg/well in a total volume of 100 μL/well assay buffer (50 mM Tris-HCl, 5 mM MgCl2, supplemented with 0.01% CHAPS and 1 mM EDTA, pH 7.4) and homogenised using an IKA T10 Ultra-Turrax disperser in 3 × 5 s bursts at 15,000 rpm. For equilibrium displacement assays, membranes were placed in 96-well microplates at 10 °C and the required concentration of competing agonist was added in the presence of a final concentration of ~ 10 nM [^3H] […] For all experiments, incubation was terminated by rapid filtration performed on 96-well GF/B filter plates using a PerkinElmer Filtermate-harvester (PerkinElmer, Groningen, The Netherlands). […] In addition, the exact concentration of [^3H]

The target in experiment [2] is T1, human A3AR. Kind of experiment: [3H]PSB-11 radioligand competition association (Motulsky and Mahan) in Nluc-A3AR HEK293 membranes. Type of experiment: binding. More on the design: expressed in transfected cells. The conditions noted are these: for Kd: read-out: Kinetics pKD (converted). Here is the method:
(§1) Prior to all experiments, membranes from HEK293 membranes expressing human Nluc-A3AR were diluted to 20 μg/well in a total volume of 100 μL/well assay buffer (50 mM Tris-HCl, 5 mM MgCl2, supplemented with 0.01% CHAPS and 1 mM EDTA, pH 7.4) and homogenised using an IKA T10 Ultra-Turrax disperser in 3 × 5 s bursts at 15,000 rpm. For equilibrium displacement assays, membranes were placed in 96-well microplates at 10 °C and the required concentration of competing agonist was added in the presence of a final concentration of ~ 10 nM [^3H] […] For association assays, Nluc-A3AR HEK293 membranes were placed at 10 °C in 96-well microplates and the amount of radioligand bound to the receptor was measured at different time points during a total incubation of 120 min. For dissociation experiments, HEK293 membranes expressing human Nluc-A3AR were incubated for 120 min with ~ 10 nM [^3H] […] The competition association assays were initiated by the addition of Nluc-A3AR HEK293 membranes at different time points for a total of 240 min to a total volume of 100 μl/well of assay buffer at 10 °C with ~ 10 nM [^3H] […] For all experiments, incubation was terminated by rapid filtration performed on 96-well GF/B filter plates using a PerkinElmer Filtermate-harvester (PerkinElmer, Groningen, The Netherlands). After drying the filter plate at 50 °C for 30 min, the filter-bound radioactivity was determined by scintillation spectrometry using a 2450 MicroBeta^2 Plate Counter (PerkinElmer, Boston, MA). In addition, the exact concentration of [^3H]
(§2) The binding kinetics of unlabelled ligands was quantified using the competition association assay based on the theoretical framework by Motulsky and Mahan. NanoBRET and radioligand data were fitted into the competition association model using ‘kinetics of competitive binding’ to determine association and dissociation rate constants of the unlabelled compounds:
KA=k1L⋅10^−9+k2KB=k3I⋅10^−9+k4S=KA−KB^2+4⋅k1⋅k3⋅L⋅I⋅10^−18KF=0.5KA+KB+SKS=0.5KA+KB−SQ=Bmax⋅k1⋅L⋅10^−9/KF−KSY=Q⋅k4⋅KF−KS/KF⋅KS+k4−KF/KFe^−KF⋅X−k4−KS/KSe^−KS⋅X where k1 is the kon of the labelled ligand (M^−1 min^−1), k2 is the koff of the labelled ligand (min^−1), L is the concentration of the labelled ligand in nanomolar, I is the concentration of the unlabelled competitor (nM), X is the time (min) and Y is the specific binding of the labelled ligand (NanoBRET ratio or DPM).
(§3) k1 and k2 values were generated from association kinetic experiments. k3, k4 and Bmax were then calculated, where k3 represents the kon (M^−1 min^−1) of the unlabelled ligand, k4 stands for the koff (min^−1) of the unlabelled ligand and Bmax equals the total binding (NanoBRET ratio or DPM). The residence time (RT) was calculated as the reciprocal of the ligand dissociation rate constant as follows: RT=1/koff
This was borne out in the kinetics parameters obtained from fitting the data to the Motulsky and Mahan model (Table 2).
On the technique in general: Loss of bound radioactivity is the signal in a displacement assay; it reports binding, not function.

Experiment [3] addresses T1, human A3AR. The experiment in a line: NanoBRET saturation binding of fluorescent antagonists in live Nluc-A3AR HEK293 cells. (In BRET a luciferase serves as donor, and the signal depends on an acceptor being close.)
Experimental: (§4) For saturation and competition binding assays, the required concentration of fluorescent ligand and competing ligand was added simultaneously and incubated for 1 h (for AV039) or 3 h (for XAC-S-ser-S-tyr-X-BY630) at 37 °C (no CO2). After 1 h, 10 μM furimazine was added to each well and the plate incubated for 5 min at 37 °C before reading. […] For association kinetic experiments, following the furimazine incubation, the required concentration of fluorescent ligand in the presence or absence of 10 μM MRS1220 was added simultaneously and the plate read immediately once per minute for up to 3 h at 37 °C. For kinetic competition association assays, after furimazine incubation, either XAC-S-ser-S-tyr-X-BY630 (20 nM) or AV039 (40 nM) were added simultaneously with the required concentration of unlabelled ligand or 10 μM MRS1220 to determine non-specific binding and read once per minute for the indicated times at 37 °C. For all NanoBRET experiments, fluorescence and luminescence were read using a PHERAstar FS plate reader (BMG Labtech, Ortenberg, Germany). Filtered light emissions were measured at 460 nm (80 nm band pass) and at > 610 nm (long pass) for the BY630 labelled ligands and at 450 nm (80 nm band pass) and > 550 nm (long pass) for the BYFL labelled ligand. The raw NanoBRET ratio was calculated by dividing the fluorescence emission (610 or 550 nm) by the luminescence emission (460 or 450 nm).
NanoBRET total and non-specific saturation binding curves were fitted simultaneously using the following equation: BRET ratio=Bmax.B/B+KD+M.B+C where Bmax is the maximal specific binding achieved, [B] is the concentration of fluorescent ligand, KD is the equilibrium dissociation constant, M is the slope of the non-specific binding component and C is the intercept with the Y-axis.
Initially, we determined the affinity of each of these fluorescent antagonists at NanoLuc tagged A3AR (Nluc-A3AR) in the NanoBRET assay.
For experiment [4], the target named is T1, human A3AR. Kind of experiment: NanoBRET association kinetics of fluorescent antagonists in live Nluc-A3AR HEK293 cells. The note with it: for residence time: read-out: Kinetics RT (residence time); for koff: read-out: Kinetics koff; for kon: read-out: Kinetics kon.
Experimental: as §4
For NanoBRET association kinetic data, non-specific binding was determined in wells with fluorescent ligand plus 10 μM MRS1220 and this was obtained for each concentration of fluorescent ligand at each time point. This was subsequently subtracted from total binding at the equivalent time point. The data were simultaneously fit to the following equations: Y=Ymax1−e^−kobst kon=kobs−koff/L where Ymax equals the level of binding at infinite time (t), kobs is the rate constant for the observed rate of association at a particular concentration of L, [L] is the ligand concentration in molar, koff is the dissociation rate constant of the ligand in per minute and kon is the association rate constant in per molar per minute. From this, the equilibrium dissociation constant (KD) is determined as follows: KD=koff/kon
Experiment [5] concerns the target T1, human A3AR. Kind of experiment: NanoBRET kinetic competition association with AV039 as probe in Nluc-A3AR HEK293 cells. Type of experiment: binding. Also on record: expressed in transfected cells. The note with it: for Kd: read-out: Kinetics pKD (probe AV039) (converted); for Kinetics RT (probe AV039): reciprocal of koff, NanoBRET competition association with 40 nM AV039, cells. As to the method:
as §2, §3

Experiment [6] deals with T1, human A3AR. Kind of experiment: NanoBRET equilibrium competition binding with XAC-S-ser-S-tyr-X-BY630 as probe in Nluc-A3AR HEK293 cells. Also on record: expressed in transfected cells.
For experiment [7], the target named is T1, human A3AR. Kind of experiment: NanoBRET kinetic competition association with XAC-S-ser-S-tyr-X-BY630 as probe in Nluc-A3AR HEK293 cells. Type of experiment: binding. Also on record: expressed in transfected cells. The note with it: for Kinetics RT (probe XAC-S-ser-S-tyr-X-BY630): reciprocal of koff, NanoBRET competition association with 20 nM XAC-S-ser-S-tyr-X-BY630, cells. Here is the method: as §2
The residence time (RT) was calculated as the reciprocal of the ligand dissociation rate constant as follows: RT=1/koff

In experiment [8] the target is T1, human A3AR. Kind of experiment: NanoBRET equilibrium competition binding with AV039 as probe in Nluc-A3AR HEK293 cells.
Experimental: For saturation and competition binding assays, the required concentration of fluorescent ligand and competing ligand was added simultaneously and incubated for 1 h (for AV039) or 3 h (for XAC-S-ser-S-tyr-X-BY630) at 37 °C (no CO2). After 1 h, 10 μM furimazine was added to each well and the plate incubated for 5 min at 37 °C before reading. […] For association kinetic experiments, following the furimazine incubation, the required concentration of fluorescent ligand in the presence or absence of 10 μM MRS1220 was added simultaneously and the plate read immediately once per minute for up to 3 h at 37 °C. For kinetic competition association assays, after furimazine incubation, either XAC-S-ser-S-tyr-X-BY630 (20 nM) or AV039 (40 nM) were added simultaneously with the required concentration of unlabelled ligand or 10 μM MRS1220 to determine non-specific binding and read once per minute for the indicated times at 37 °C. For all NanoBRET experiments, fluorescence and luminescence were read using a PHERAstar FS plate reader (BMG Labtech, Ortenberg, Germany). Filtered light emissions were measured at 460 nm (80 nm band pass) and at > 610 nm (long pass) for the BY630 labelled ligands and at 450 nm (80 nm band pass) and > 550 nm (long pass) for the BYFL labelled ligand. […]
Experiment [9] concerns the target T1, human A3AR. Kind of experiment: [3H]PSB-11 radioligand association and dissociation in Nluc-A3AR HEK293 membranes. Type of experiment: binding. Also on record: expressed in transfected cells. The conditions noted are these: 10 °C. Here is the method:
as §1
To confirm the differences in the kinetics observed with AV039 and XAC-S-ser-S-tyr-X-BY630, radioligand equilibrium and kinetic binding assays in membranes from HEK293 cells stably expressing Nluc-A3AR were undertaken.

Experiment [10] concerns the target T1, human A3AR. The experiment in a line: [3H]PSB-11 saturation binding (KD used for the Ki calculation). More on the design: expressed in transfected cells. The note with it: radioligand, saturation binding assay of this study, read-out: KD, equilibrium dissociation constant of the labelled ligand.
The mark [11] stands for this setting: read-out: Kinetics koff (converted).
The mark [12] stands for this setting: read-out: Kinetics kon (converted).
Where [13] appears, read: NanoBRET competition association with 40 nM AV039, Nluc-A3AR HEK293 cells, 37 °C.
Setting [14] is: association and dissociation curves of 10 nM [3H]PSB-11, Nluc-A3AR HEK293 membranes.

As a reminder, the koff is the first-order rate constant of dissociation. The kon is the rate constant with which the complex forms.

Consider `COc1ccc(-n2nc3c(NC(=O)CCC(=O)NCCOCCOCCNC(=O)CCCCCNC(=O)COc4ccc(/C=C/C5=[N+]6C(=Cc7ccc(-c8cccs8)n7[B-]6(F)F)C=C5)cc4)nc4ccccc4n3c2=O)cc1` [AV039], for which, in [1], the Ki was 0.0224 µM. Further, the koff in experiment [2] (setting [11]) was 0.00127 s⁻¹; in experiment [4], 0.0025 s⁻¹. The kon in [2] (setting [12]) is 54500 M⁻¹ s⁻¹; in experiment [4], 61200 M⁻¹ s⁻¹. Further, the values for the Kd in experiment [2], in experiment [3] and in experiment [4] were 0.0234 µM, 0.00776 µM and 0.0447 µM, respectively. The residence time in [4] was 6.8 ± 0.8 min.
Consider `CCCn1c(=O)c2[nH]c(-c3ccc(OCC(=O)NCCNC(=O)[C@H](CO)NC(=O)[C@H](Cc4ccc(O)cc4)NC(=O)CCCCCNC(=O)CCc4ccc5n4[B-](F)(F)[N+]4=C(C)C=C(C)C4=C5)cc3)nc2n(CCC)c1=O` [XAC-S-ser-S-tyr-X-BYFL], for which, in experiment [3], the Kd was 0.0166 µM. Moreover, in experiment [4], the Kd was 0.0178 µM, the residence time was found to be 14.9 ± 1.1 min, the koff was 0.00115 s⁻¹ and the kon is 65800 M⁻¹ s⁻¹.
With `COc1ccn2c(c1)nc1c2c(=O)[nH]c(=O)n1Cc1ccccc1` [compound 5, 1-Benzyl-8-methoxy-1H,3H-pyrido[2,1-f]purine-2,4-dione], the results for the Ki in experiment [1], in [6] and in experiment [8] were 0.0447 µM, 0.832 µM and 0.0891 µM, respectively. Besides, the koff in experiment [2] (setting [11]) is 0.0033 s⁻¹; in experiment [5] (NanoBRET competition association with 40 nM AV039, Nluc-A3AR HEK293 cells, 37 °C, read-out: Kinetics koff (probe AV039) (converted)) it was 0.0235 s⁻¹; in experiment [7] (read-out: Kinetics koff (probe XAC-S-ser-S-tyr-X-BY630)), 0.000783 s⁻¹. In addition, the kon in experiment [2] (setting [12]) is 110000 M⁻¹ s⁻¹; in experiment [5] (NanoBRET competition association with 40 nM AV039, Nluc-A3AR HEK293 cells, 37 °C, read-out: Kinetics kon (probe AV039) (converted)), 183000 M⁻¹ s⁻¹; in experiment [7] (read-out: Kinetics kon (probe XAC-S-ser-S-tyr-X-BY630)), 2670 M⁻¹ s⁻¹. Further, the Kd in experiment [2] was 0.0295 µM; in experiment [5] (setting [13]), 0.123 µM; in experiment [7], 0.288 µM. Also, the “Kinetics RT (probe AV039)” value in [5] (37 °C) came to 1.1 ± 0.4 min. Moreover, in [7] (37 °C), the “Kinetics RT (probe XAC-S-ser-S-tyr-X-BY630)” value turned out to be 23.2 ± 3.6 min.
Consider “[^3H]8-Ethyl-4-methyl-2-phenyl-(8R)-4,5,7,8-tetrahydro-1H-imidazo[2,1-i]-purin-5-one [[^3H]PSB-11]”, for which, in [9] (setting [14]), the Kinetics kon was 2.75 ± 0.52 × 10^6 M^−1 min^−1 and the “Kinetics pKD” value came out at 8.04 ± 0.08. Further, the Kinetics koff in experiment [9] (association and dissociation curves of 10 nM [3H]PSB-11, dissociation initiated with 10 μM PSB-11, membranes) was found to be 0.000383 ± 3.3e-05 s⁻¹. For the same compound, in [9] (reciprocal of koff, 10 nM [3H]PSB-11, Nluc-A3AR HEK293 membranes), the “Kinetics RT (residence time)” value came out at 44.6 ± 3.9 min. Moreover, in experiment [10], the Kd is 0.0099 µM.
As to `COc1cccc(Cn2c(=O)n(CC3CC3)c(=O)c3c2nc2cc(OC)ccn23)c1` [LUF7565], the figures for the Ki in [1], in experiment [6] and in experiment [8] were 0.00102 µM, 0.1 µM and 0.0117 µM, respectively. Also, the koff in [2] (read-out: Kinetics koff) was 0.000108 s⁻¹; in [5] (read-out: Kinetics koff (probe AV039)), 0.00025 s⁻¹; in experiment [7] (NanoBRET competition association with 20 nM XAC-S-ser-S-tyr-X-BY630, Nluc-A3AR HEK293 cells, 37 °C, read-out: Kinetics koff (probe XAC-S-ser-S-tyr-X-BY630) (converted)), 0.000367 s⁻¹. In addition, the kon was 136000 M⁻¹ s⁻¹ in experiment [2] (read-out: Kinetics kon); 44700 M⁻¹ s⁻¹ in experiment [5] (read-out: Kinetics kon (probe AV039)); 26800 M⁻¹ s⁻¹ in experiment [7] (NanoBRET competition association with 20 nM XAC-S-ser-S-tyr-X-BY630, Nluc-A3AR HEK293 cells, 37 °C, read-out: Kinetics kon (probe XAC-S-ser-S-tyr-X-BY630) (converted)). Moreover, the Kd in [2] is 0.000776 µM; in experiment [5] (setting [13]) it was 0.00676 µM; in experiment [7], 0.0135 µM. Also, the “Kinetics RT (probe AV039)” value in experiment [5] (37 °C) is recorded as 72.9 ± 8.3 min. The “Kinetics RT (probe XAC-S-ser-S-tyr-X-BY630)” value in experiment [7] (37 °C) is 49.2 ± 6.7 min.
Consider `CC[C@@H]1CN2C(=O)N(C)c3nc(-c4ccccc4)[nH]c3C2=N1` [PSB-11], for which, in experiment [5] (37 °C), the “Kinetics RT (probe AV039)” value was 6.6 ± 1.3 min. The “Kinetics RT (probe XAC-S-ser-S-tyr-X-BY630)” value in experiment [7] (37 °C) was found to be 22.4 ± 6.1 min.
On to `CCCn1c(=O)c2[nH]c(-c3ccc(OCC(=O)NCCNC(=O)[C@H](CO)NC(=O)[C@H](Cc4ccc(O)cc4)NC(=O)CCCCCNC(=O)COc4ccc(/C=C/C5=[N+]6C(=Cc7ccc(-c8cccs8)n7[B-]6(F)F)C=C5)cc4)cc3)nc2n(CCC)c1=O` [XAC-S-ser-S-tyr-X-BY630], for which the Ki in experiment [1] was 0.0617 µM. The koff is 3.83e-05 s⁻¹ in experiment [2] (setting [11]) and 7.17e-05 s⁻¹ in experiment [4]. Moreover, the kon is 2330 M⁻¹ s⁻¹ in experiment [2] (setting [12]) and 27700 M⁻¹ s⁻¹ in [4]. Moreover, the Kd in [2] is 0.0182 µM; in [3] it was 0.00309 µM; in experiment [4], 0.00269 µM. Also, the residence time in experiment [2] (read-out: RT (residence time)) was over 450 min; in [4], 288 ± 62 min.

The record behind these values is publication PMC6635573, “A live cell NanoBRET binding assay allows the study of ligand-binding kinetics to the adenosine A3 receptor” (Purinergic Signalling, 2019).
